Columns and labels:
HER-2/neu mRNA = assay: Northern blotting for HER-2/neu mRNA in 184B5/HER cells; assay type: cell-based, human; details: 25 μM ciglitazone or 20 μM 15-d-PGJ2
Protocol: Northern blotting was performed to evaluate whether PPARγ ligands decrease levels of HER-2/neu mRNA. 184B5/HER cells were treated with vehicle (0.01% dimethyl sulfoxide), 25 μM ciglitazone or 20 μM 15-d-PGJ2. Total cellular RNA was isolated from cell monolayers using an RNA isolation kit from Qiagen Inc. 10 μg of RNA was added to each lane. The 10 μg of total cellular RNA per lane were electrophoresed in a formaldehyde-containing 1.2% agarose gel and transferred to nylon-supported membranes. The blot was hybridized with probes that recognized HER-2/neu mRNA (Santa Cruz Biotechnology, Inc., Santa Cruz, Calif.) and 18S rRNA cDNA (Ambion, Inc., Austin, Tex.).

[1] = system: EGFR in 184B5 mammary epithelial cells; assay: immunoblot for EGFR in 184B5 cells; assay type: cell-based, human; details: ciglitazone 5-30 μM or 15-d-PGJ2 5, 10 μM, 24 hours
Protocol: The cells used were 184B5 cells. The 184B5 cell line was obtained from a collaborator and is an immortalized but non-tumorigenic human breast epithelial cell line that was established from a reduction mammaplasty and is described in Stampler, M. R, et al, Proc. Natl. Acad. Sci. USA 82, 2394-2398 (1985).
184B5 cells were maintained in MEM-KBM mixed in a ratio of 1:1 (basal medium) containing epidermal growth factor (10 ng/ml), hydrocortisone (0.5 μg/ml), transferrin (10 μg/ml), gentamicin (5 μg/ml), and insulin (10 μg/ml) (growth medium). 184B5 cells were grown to 60% confluence, trypsinized with 0.05% trypsin-2 mM ethylenediaminotetraacetic acid and plated for experimental use.
184B5 cells were treated with vehicle (0.01% dimethyl sulfoxide), ciglitazone (5, 10, 20, 30 μM) or 15-d-PGJ2 (5, 10 μM) for 24 hours. Cell lysates were prepared in RIPA buffer. Lysates were sonicated for 20 seconds on ice and centrifuged at 10,000×g for 10 minutes to sediment the particulate material. The protein concentration of the supernatant was measured by the method of Lowry,. O. H., et al, J. Biol. Chem. 193, 265-275 (1951). Cellular lysate protein (100 μg/lane) was loaded onto a 10% SDS-polyacrylamide gel, electrophoresed and subsequently transferred onto a nitrocellulose membrane(Schleicher & Schuell Keene, N. H.). […]

HER-2/neu promoter = assay: transient transfection assay, human HER-2/neu promoter construct ligated to luciferase, 184B5/HER cells; assay type: cell-based; details: 0-25 μM, 24 hours, FIG. 1
Protocol: To determine whether PPARγ ligands inhibit HER-2/neu promoter activity, a transient transfection assay was performed. 184B5/HER cells were transfected with 1.8 μg of a human HER-21neu promoter construct ligated to luciferase (-1571/--24) and 0.2 μg pSVβgal (Promega Corp., Madison Wis.). The HER-2/neu promoter (-1571/--24) is described in Hudson, L. G. et al, J. Biol. Chem. 265, 4389-4393 (3/90), the whole of which is incorporated herein by reference. The promoter constructs are described in Hudson, L. G., et al, Cell 62, 1165-1175(1990). 184B5/HER cells were seeded at a density of5×10^4 cells well in 6-well dishes and grown to 50-60% confluence. For each well, 2 μg of […] DNA were introduced into cells using 8 μg of LIPOFECTAMINE (Life Technologies, Inc., Grand Island, N.Y.) as per the manufacturer's instructions. Following transfection, the cells were treated with ciglitazone (0, 5, 10, 15, 20 and 25 μM) or 15d-PGJ2 (0, 5, 10, 15, 20 and 25 μM) for 24 hours.
The activities of luciferase and β-galactosidase were measured in cellular extract as described in Mestre, J. R. et al, Cancer Res. 57, 1081-1085 (1997).

[2] = system: HER-2/neu in 184B5/HER cells; assay: immunoblot for HER-2/neu in 184B5/HER cells; assay type: cell-based, human; details: 25 μM ciglitazone or 20 μM 15-d-PGJ2, 24 hours
Excerpt: The 184B5/HER cell line was obtained from a collaborator and was derived by stably transfecting 184B5 cells with a mutationally activated HER-2/neu oncogene; these cells form rapidly growing tumors when injected into athymic nude mice. The 184B5/HER cell line is described in Pierce, J. H., et al., Oncogene 6, 1189-1194 (1991). The BT-474 cell line is a human breast cancer adenocarcinoma cell line which overexpresses HER-2/neu, and was obtained from the American Type Culture Collection (Manassas, Va.) and bears accession number ATCC HBT-20.
184B5/HER cells were maintained in MEM-KBM mixed in a ratio of 1:1 (basal medium) containing epidermal growth factor (10 ng/ml), hydrocortisone (0.5 μg/ml), transferrin (10 μg/ml), gentamicin (5 μg/ml) and insulin (10 μg/ml) (growth medium). […] cells were grown to 60% confluence, trypsinized with 0.05% trypsin-2 mM ethylenediaminotetraacetic acid, and plated for experimental use. […]
184B5/HER cells were treated with vehicle (0.01% dimethylsulfoxide), 25 μM ciglitazone (Biomol, Plymouth Meeting, Pennsylvania) or 20 μM 15-d-PGJ2 (Biomol, Plymouth Meeting, Pennsylvania) for 24 hours. […] The protein concentration of the supernatant was measured by the method of Lowry, O. H., et al, J. Biol. Chem. 193, 265-275 (1951). […]

EGFR promoter = assay: transient transfection assay, human EGFR promoter construct ligated to luciferase, 184B5 cells; assay type: cell-based; details: 0-25 μM, 24 hours, FIG. 2
Protocol: To determine whether PPARγ ligands inhibit EGFR promoter activity, a transient transfection assay was performed, 184B5 cells were transfected with 1.8 μg of a human EGFR promoter construct ligated luciferase (-1100/-19) and 0.2 μg pSVβgal (Promega Corp., Madison, Wis.). The EGFR promoter is described in Hudson, L. G., et al, Cell 62, 1165-1175 (1990), the whole of which is incorporated herein by reference. 184B5 cells were seeded at a density of 5×10^4 cells/well in 6-well dishes and grown to 50-60% confluence. For each well 2 μg of […] DNA were introduced into cells using 8 μg of LIPOFECTAMINE (Life Technologies, Inc., Grand Island, N.Y.) as per the manufacturers instructions. Following transfection, the cells were treated with ciglitazone (0, 5, 10, 15, 20 and 25 μM) or 15-d-PGJ2 (0, 5, 10, 15, 20, and 25 μM) for 24 hours. The activities of luciferase and β-galactosidase were measured in cellular extract as described in Mestre, J. R, et al, Cancer Res. 57, 1081-1085 (1997). The results are shown in FIG. 2 where luciferase activity represents data that have been normalized to β-galactosidase activity (columns, means; bars, S. D., n=6; * means p<0.01 compared to control).

[3] = target: human PPARγ binding domain; details: scintillation proximity assay, radioligand [3H]BRL 49653; values reported in Henke et al, Collins et al, Cobb et al; cited from earlier work
[4] = system: HER-2/neu positive colon cancer; assay: Example V: after resection of colon cancer; assay type: in vivo, human; details: patient, oral 5 mg/kg twice daily for five years after resection
[5] = system: HER-2/neu positive breast cancer; assay: Example I: adjuvant therapy after mastectomy; assay type: in vivo, human; details: patient, oral 5 mg/kg twice per day for five years after mastectomy
[6] = system: EGFR positive breast cancer; assay: Example IX: adjuvant therapy after mastectomy; assay type: in vivo, human; details: patient, oral 5 mg/kg twice daily for five years after mastectomy
[7] = system: non-small cell lung carcinoma where EGFR is overexpressed; assay: Example VI: non-small cell lung carcinoma metastasized to liver; assay type: in vivo, human; details: patient, oral 5 mg/kg twice daily
Protocol: After one month, PPARγ ligand administration is continued in combination with infusion of cisplatin every four weeks at 60 mg/m^2 for 12 more weeks.

[8] = system: head and neck carcinoma where EGFR is overexpressed; assay: Example VII: head and neck carcinoma; assay type: in vivo, human; details: after the 12 weeks of CETUXIMAB and cisplatin, oral 5 mg/kg twice daily for 12 weeks
Protocol: Concurrently cisplatin is infused every four weeks at 60 mg/m^2.

[9] = system: HER-2/neu positive breast cancer metastasized to lung and liver; assay: Example III: breast cancer metastasized to lung and liver; assay type: in vivo, human; details: patient, oral 5 mg/kg twice daily
Protocol: After three months, the PPARγ ligand administration is continued in combination regimen with Taxol® at a dose of 175 mg/m^2 administered intravenously every three weeks.

[10] = system: HER-2/neu positive breast cancer; assay: Example II: adjuvant therapy with PPARγ ligand and HERCEPTIN; assay type: in vivo, human; details: patient, oral 5 mg/kg twice daily for one year, with HERCEPTIN 250 mg IV loading then 10 weekly doses of 125 mg
[11] = system: HER-2/neu positive breast cancer metastasized to bone; assay: Example IV: breast cancer metastasized to bone; assay type: in vivo, human; details: patient after failure of prior chemotherapy, oral 5 mg/kg twice daily plus HERCEPTIN
Protocol: After 90 days, oral cyclophosphamide at a dose of 3 mg/kg/day and doxorubicin administered intravenously weekly at a dose of 20 mg/m^2, are added to the drug regimen.

[12] = system: Stage IV EGFR positive breast cancer tumors; assay: Example VIII: breast cancer with Stage IV EGFR positive tumors; assay type: in vivo, human; details: oral 5 mg/kg twice daily in combination with CETUXIMAB and Taxol

| SMILES | pKi in binding assay using the human PPARγ binding domain [3] | recurrence of colon cancer [4] | recurrence of breast cancer [5] | recurrence of breast cancer [6] | tumor burden [7] | tumor burden [8] | tumor burden [9] | recurrence of breast cancer [10] | tumor burden [11] | further results |
| --- | --- | --- | --- | --- | --- | --- | --- | --- | --- | --- |
| CCCCC/C=C/C=C1/C(=O)C=C[C@@H]1C/C=C\CCCC(=O)O [15-d-PGJ2, 15-deoxy-Δ12, 14-prostaglandin J2] | – | – | – | – | – | – | – | – | – | amounts of HER-2/neu mRNA (Northern blot) (HER-2/neu mRNA): decrease amounts of HER-2/neu mRNA; amounts of EGFR (immunoblot) [1]: decreased amounts of EGFR; HER-2/neu promoter activity (luciferase normalized to β-galactosidase) (HER-2/neu promoter): inhibited HER-2 neu promoter activity in a dose-dependent fashion; amount of HER-2/neu (immunoblot) [2]: decreased the amount of HER-2/neu; EGFR promoter activity (luciferase normalized to β-galactosidase) (EGFR promoter): inhibited EGFR promoter activity in a dose-dependent fashion |
| Cc1oc(-c2ccccc2)nc1CCOc1ccc(C[C@H](Nc2ccccc2C(=O)OC(C)C)C(=O)O)cc1 [#66] | 9.01±0.00 | – | – | – | – | – | – | – | – | – |
| CN(CCOc1ccc(C[C@H](Nc2ccccc2C(=O)c2ccccc2)C(=O)O)cc1)c1nc2ccccc2o1 [structure (II), 3-{4-[2-benzoxazol-2-ylmethylamino)ethoxy](phenyl}-(2S)-((2-benzoylphenyl)amino)propionic acid] | 8.83±0.05 | Recurrence of colon cancer does not occur | recurrence of breast cancer does not occur | Recurrence of breast cancer dose not occur | reduced tumor burden | further reduced tumor burden | reduced tumor burden | Recurrence of breast cancer does not occur | reduced tumor burden | – |
| CCOC(=O)c1ccccc1N[C@@H](Cc1ccc(OCCc2nc(-c3ccccc3)oc2C)cc1)C(=O)O [#64] | 8.52±0.03 | – | – | – | – | – | – | – | – | – |
| CN(CCOc1ccc(CC2SC(=O)NC2=O)cc1)c1ccccn1 (stereo not drawn) [rosiglitazone] | 7.33±0.02 | Recurrence of colon cancer does not occur | Recurrence of breast cancer does not occur | Recurrence of breast cancer dose not occur | reduced tumor burden | further reduced tumor burden | reduced tumor burden | Recurrence of breast cancer does not occur | reduced tumor burden | tumor burden [12]: reduced tumor burden |
| CCCOC(=O)c1ccccc1N[C@@H](Cc1ccc(OCCc2nc(-c3ccccc3)oc2C)cc1)C(=O)O [#65] | 8.62±0.03 | – | – | – | – | – | – | – | – | – |

Reference: US6291496A, “Treating cancers associated with overexpression of class I family of receptor tyrosine kinases” (priority 1999, dated 2001)
